Assay results from the supplement of paper PMC10307832.

Assays:
Experiment in all cases: relative viability (nuclei count vs DMSO), 5 days (fraction); higher = more cells survive
[1] = compound: CC(C)Oc1cc(Nc2nc(N[C@@H](C)c3ccc(F)cn3)ncc2Cl)n[nH]1 [AZ23]
In short: (§1)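 Five library-drug doses spaced by √10 were pinned onto vehicle-anchored 1536-well plates of lung cancer cell lines that had been kept overnight at 37 °C. Cells went 5 days without medium change, then were fixed, permeabilised and Hoechst-stained together, imaged at 4× and counted by MetaXpress. Viability is the ratio of treated-well to vehicle-well nuclei, taken as a median over plates. Plates required control CV below 25% and at least one doubling.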

[2] = compound: CC(C)S(=O)(=O)C1=CC=CC=C1NC2=NC(=NC(=C2Cl)N)NC3=C(C=C(C=C3)N4CCC(CC4)C(=O)N)OC [HG-5-88-01]
In short: as §1

[3] = compound: CCCCCCCCCCCC1=C(O)C(=O)C=C(O)C1=O [Embelin]
In short: as §1

[4] = compound: C[C@@H]1CN(CC(=O)Nc2ccc3c(c2)Cc2cccc(-c4cc(=O)cc(N5CCOCC5)o4)c2S3)C[C@H](C)O1
In short: as §1

[5] = compound: Clc1ccc(Nc2nnc(Cc3ccncc3)c3ccccc23)cc1 [Vatalanib]
In short: as §1

Cell Line	relative viability ([1]; 0.01 µM)	relative viability ([1]; 0.03162 µM)	relative viability ([1]; 0.3162 µM)	relative viability ([2]; 0.04 µM)	relative viability ([2]; 0.1265 µM)	relative viability ([2]; 0.4 µM)	relative viability ([2]; 1.265 µM)	relative viability ([2]; 4 µM)	relative viability ([3]; 0.08 µM)	relative viability ([3]; 0.8 µM)	relative viability ([3]; 2.53 µM)	relative viability ([3]; 8 µM)	relative viability ([4]; 0.04 µM)	relative viability ([4]; 0.1265 µM)	relative viability ([4]; 0.4 µM)	relative viability ([4]; 4 µM)	relative viability ([5]; 0.04 µM)	relative viability ([5]; 0.1265 µM)	relative viability ([5]; 0.4 µM)	relative viability ([5]; 1.265 µM)	relative viability ([5]; 4 µM)
201T	1.05	1.06	1.07	1.01	0.941	0.951	1.03	1.03	0.985	1.02	1.11	0.966	0.996	0.944	0.992	0.961	0.975	0.975	1.05	0.929	0.953
A549	1.23	1.12	0.922	0.997	0.954	0.909	0.726	0.75	0.992	1.06	1.12	0.97	0.958	0.922	0.918	0.806	1.01	0.944	0.998	0.928	0.929
A-427	0.921	1.07	1.15	0.94	1.02	1.02	1.11	0.534	1.06	1.03	1.04	0.943	0.956	0.945	1.06	0.938	1.03	0.97	0.983	0.863	0.989
ABC-1	0.82	1.18	1.02	0.825	1	0.732	0.75	0.778	0.866	1.11	0.893	1.03		1.11	0.983	1.12	0.977	0.647	0.803	0.89	0.851
BEN	1.05	1.12	0.994	0.866	1.07	0.884	0.873	1.05	1.04	1.14	1.1	1.02	0.929	0.881	1.12	0.955	0.954	0.904	0.951	0.882	0.946
CAL-12T	0.692	1.09	0.932	0.959	1.09	0.952	0.746	0.459	1.01	1.18	0.855	0.986	1.04	1.01	1.06	0.549	0.978	0.946	0.988	0.867	0.885
COR-L23	1.03	1.11	1.15	1.05	1.08	0.964	0.952	0.867	1	1.18	1.06	1.16	1.03	1.07	1.06	0.877	0.971	0.977	1.13	1.01	0.994
COR-L 105	0.843	1.1	1.04	0.825	0.969	0.883	0.726	0.685	1.04	1.1	0.89	0.981	0.921	1.01	1.05	0.805	0.901	0.895	1.03	0.892	0.835
